Test results taken from ChEMBL document CHEMBL4609983, “Pan-specific and partially selective dye-labeled peptidic inhibitors of the polycomb paralog proteins” (Bioorg Med Chem, 2020).
Active and inactive are the calls of the source. Non-standard residues stand in square brackets, D forms with d. Residues, ends and D or L forms follow the SMILES beside them. *: point of attachment. Biotin = O=C1N[C@H]2[C@H](CS[C@H]2CCCCC(=O)*)N1; Lys(Me3) = C[N+](C)(C)CCCC[C@H](N)C(=O)O; Benzoyl(4-Br) = O=C(c1ccc(Br)cc1)*

Key:
[1] = biological target: T1, Chromobox protein homolog 6 (Homo sapiens) (UniProt O95503); assay: Binding affinity to recombinant human CBX6 by microarray based assay
T1 sequence (whole entry): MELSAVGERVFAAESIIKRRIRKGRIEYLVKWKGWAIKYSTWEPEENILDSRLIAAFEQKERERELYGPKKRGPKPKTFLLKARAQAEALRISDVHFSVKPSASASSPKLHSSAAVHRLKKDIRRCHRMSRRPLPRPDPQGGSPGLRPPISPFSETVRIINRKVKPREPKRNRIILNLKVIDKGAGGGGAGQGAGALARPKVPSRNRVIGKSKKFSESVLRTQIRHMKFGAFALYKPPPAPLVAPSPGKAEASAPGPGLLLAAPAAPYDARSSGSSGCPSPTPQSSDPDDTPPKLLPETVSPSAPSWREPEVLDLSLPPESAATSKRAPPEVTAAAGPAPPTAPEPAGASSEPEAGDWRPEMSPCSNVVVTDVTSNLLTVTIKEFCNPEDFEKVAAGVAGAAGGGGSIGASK

[2] = biological target: T2, Chromobox protein homolog 8 (Homo sapiens) (UniProt Q9HC52); assay: Binding affinity to recombinant human CBX8 by microarray based assay
T2 sequence (whole entry): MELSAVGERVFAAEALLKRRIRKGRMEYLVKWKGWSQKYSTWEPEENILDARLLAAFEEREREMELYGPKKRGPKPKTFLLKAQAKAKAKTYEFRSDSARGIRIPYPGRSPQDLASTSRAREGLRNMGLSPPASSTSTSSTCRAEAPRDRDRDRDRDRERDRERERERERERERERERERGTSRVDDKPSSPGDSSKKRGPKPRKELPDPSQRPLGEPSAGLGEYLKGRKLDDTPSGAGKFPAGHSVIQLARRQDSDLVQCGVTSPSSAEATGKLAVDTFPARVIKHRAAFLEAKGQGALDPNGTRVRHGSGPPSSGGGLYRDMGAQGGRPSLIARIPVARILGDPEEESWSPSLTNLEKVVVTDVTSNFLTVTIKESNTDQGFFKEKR

[3] = biological target: Mortality factor 4-like protein 1 (Homo sapiens) (UniProt Q9UBU8); assay: Binding affinity to recombinant human MORF4L1 by microarray based assay
[4] = biological target: T3, E3 SUMO-protein ligase CBX4 (Homo sapiens) (UniProt O00257); assay: Binding affinity to recombinant human CBX4 by microarray based assay
T3 sequence (whole entry): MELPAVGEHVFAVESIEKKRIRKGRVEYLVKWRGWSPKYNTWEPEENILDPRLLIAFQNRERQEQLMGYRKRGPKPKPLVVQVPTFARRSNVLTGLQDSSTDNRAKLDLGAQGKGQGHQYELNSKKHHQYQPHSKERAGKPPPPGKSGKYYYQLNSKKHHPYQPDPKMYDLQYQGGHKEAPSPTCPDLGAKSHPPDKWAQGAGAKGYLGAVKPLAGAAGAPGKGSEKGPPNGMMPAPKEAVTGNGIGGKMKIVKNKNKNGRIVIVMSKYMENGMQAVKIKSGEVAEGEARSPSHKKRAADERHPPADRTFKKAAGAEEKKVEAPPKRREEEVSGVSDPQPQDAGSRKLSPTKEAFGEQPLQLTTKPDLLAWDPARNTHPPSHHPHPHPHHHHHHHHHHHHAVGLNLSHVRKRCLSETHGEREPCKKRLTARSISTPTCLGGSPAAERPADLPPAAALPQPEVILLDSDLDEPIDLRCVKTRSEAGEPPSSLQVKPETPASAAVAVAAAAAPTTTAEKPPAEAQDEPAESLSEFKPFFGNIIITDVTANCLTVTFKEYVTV

[5] = biological target: T4, Chromodomain Y-like protein 2 (Homo sapiens) (UniProt Q8N8U2); assay: Binding affinity to recombinant human CDYL2 by microarray based assay
T4 sequence (whole entry): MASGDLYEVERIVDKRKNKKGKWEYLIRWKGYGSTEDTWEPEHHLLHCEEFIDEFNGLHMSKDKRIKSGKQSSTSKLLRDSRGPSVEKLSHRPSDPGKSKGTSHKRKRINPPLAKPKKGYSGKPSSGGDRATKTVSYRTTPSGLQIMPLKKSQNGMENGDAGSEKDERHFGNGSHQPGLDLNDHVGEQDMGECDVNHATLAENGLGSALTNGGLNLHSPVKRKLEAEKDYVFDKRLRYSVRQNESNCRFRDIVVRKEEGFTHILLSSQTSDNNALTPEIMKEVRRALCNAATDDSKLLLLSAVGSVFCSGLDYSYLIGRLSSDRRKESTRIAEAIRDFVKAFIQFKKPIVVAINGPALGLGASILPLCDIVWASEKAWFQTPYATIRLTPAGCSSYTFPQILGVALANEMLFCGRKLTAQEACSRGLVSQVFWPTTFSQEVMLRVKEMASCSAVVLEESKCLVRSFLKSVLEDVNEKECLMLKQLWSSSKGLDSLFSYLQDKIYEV

[6] = biological target: T5, Chromodomain Y-like protein (Homo sapiens) (UniProt Q9Y232); assay: Binding affinity to recombinant human CDYL1B by microarray based assay
T5 sequence (whole entry): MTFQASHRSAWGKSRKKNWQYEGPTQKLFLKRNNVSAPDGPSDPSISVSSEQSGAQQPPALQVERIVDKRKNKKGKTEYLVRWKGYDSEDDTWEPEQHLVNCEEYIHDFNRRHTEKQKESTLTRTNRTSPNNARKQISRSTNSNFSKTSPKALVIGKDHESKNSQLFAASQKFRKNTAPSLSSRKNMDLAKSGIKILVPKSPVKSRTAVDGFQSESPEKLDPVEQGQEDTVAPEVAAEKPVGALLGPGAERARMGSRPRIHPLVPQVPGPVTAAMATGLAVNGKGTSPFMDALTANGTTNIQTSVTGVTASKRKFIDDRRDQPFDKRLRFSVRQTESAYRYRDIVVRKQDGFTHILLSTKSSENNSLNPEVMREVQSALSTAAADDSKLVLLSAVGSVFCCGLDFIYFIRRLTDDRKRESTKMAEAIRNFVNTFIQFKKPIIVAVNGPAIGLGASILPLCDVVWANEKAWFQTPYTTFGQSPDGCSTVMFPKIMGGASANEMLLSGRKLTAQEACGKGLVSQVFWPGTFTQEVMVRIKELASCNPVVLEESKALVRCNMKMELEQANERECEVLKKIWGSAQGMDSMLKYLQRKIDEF

[7] = biological target: T6, Chromobox protein homolog 7 (Homo sapiens) (UniProt O95931); assay: Binding affinity to recombinant human CBX7 by microarray based assay
T6 sequence (whole entry): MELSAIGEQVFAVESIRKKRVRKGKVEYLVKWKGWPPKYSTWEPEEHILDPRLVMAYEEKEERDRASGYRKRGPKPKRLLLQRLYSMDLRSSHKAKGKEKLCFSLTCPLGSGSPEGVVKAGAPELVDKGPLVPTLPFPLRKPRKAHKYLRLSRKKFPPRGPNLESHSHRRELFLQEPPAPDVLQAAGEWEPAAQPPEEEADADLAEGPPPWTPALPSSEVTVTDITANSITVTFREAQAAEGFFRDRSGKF

Measured: Activity

Mortality factor 4-like protein 1 (Homo sapiens), sequence (Q9UBU8 whole entry): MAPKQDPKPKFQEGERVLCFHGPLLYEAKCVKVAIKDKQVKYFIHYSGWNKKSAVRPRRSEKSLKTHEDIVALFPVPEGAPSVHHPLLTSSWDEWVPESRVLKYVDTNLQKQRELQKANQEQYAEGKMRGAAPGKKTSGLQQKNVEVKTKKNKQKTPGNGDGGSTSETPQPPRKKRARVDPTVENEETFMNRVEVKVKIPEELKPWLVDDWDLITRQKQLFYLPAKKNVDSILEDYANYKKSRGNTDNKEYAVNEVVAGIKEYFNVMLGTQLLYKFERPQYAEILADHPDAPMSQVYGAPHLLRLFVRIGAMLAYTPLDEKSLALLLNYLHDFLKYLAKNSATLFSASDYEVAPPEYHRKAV

CC(C)C[C@H](NC(=O)[C@H](CO)NC(=O)[C@H](CCCC[N+](C)(C)C)NC(=O)[C@H](Cc1ccc(O)cc1)NC(=O)[C@H](C)NC(=O)[C@H](Cc1ccccc1)NC(=O)c1ccc(Br)cc1)C(=O)N[C@@H](CCCCNC(=O)CCCC[C@@H]1SC[C@@H]2NC(=O)N[C@@H]21)C(N)=O ({Benzoyl(4-Br)}-FAY[Lys(Me3)]SLK(Biotin)-NH2)
active: all assays above
